Source: publication PMC8008885 (Journal of Enzyme Inhibition and Medicinal Chemistry, 2021)

Tested on: HD (Q111/Q111) striatal cells
Assay: Western blot analysis of SETDB1 protein and H3K9me3 level in HD (Q111) cells
Format: cell-based
Settings: HD (Q111) cell
Experimental: Cells were homogenised with Dounce homogeniser in […] of phosphate-buffered saline containing 0.4 mM sodium butyrate, 5% Triton X-100, 3 mM DTT, 1 mM sodium orthovanadate, 5 mM sodium fluoride, 3 mM PMSF, 3 mM DTT, 0.5 mg/ml leupeptin, and 10 mg/ml aprotinin as previously described. The nuclear pellets were collected and washed twice with the above-described 5% Triton buffer. Histones were extracted by solubilising in […] of 0.2 M HCl on a shaker for 2 h. After neutralising the pH of the acid-extracted solution containing the histone pool with ammonium acetate, the protein content was quantified. Each histone extract (an amount of […]) was placed onto each well of the dot blot apparatus pre-assembled with a nitrocellulose membrane and vacuumed for 30 min. After releasing the vacuum, the nitrocellulose membrane was removed and washed twice with TBS-T for 5 min. Then, the nitrocellulose membrane was blocked with 5% milk/TBS-T for 30 min and subsequently incubated with primary antibody in 5% milk/TBS-T for 24 h at cold room. The nitrocellulose membrane was washed twice with TBS-T for 5 min and incubated with secondary antibody in 1% milk (15 ml) for one hour at room temperature. After washing the membrane twice with TBS-T for 5 min, the immune reactivity was developed with Chemiluminescent Kit. […]

C=CCOc1cccc2nc(N3CCCC3)ccc12 [APQ, 5-allyloxy-2-(pyrrolidin-1-yl)quinoline]
H3K9me3 level: reduced
SETDB1 protein levels (dose-dependent): significantly decreased
